Columns and labels:
D-1 receptor = D-1 receptor in carp retina (in vitro); settings: concentration of agonist required to inhibit the biochemical response by 50%, read-out: Fish retina D-1 receptor IC50
D-2 receptor = D-2 receptor (Rattus norvegicus, UniProt P61169)
Chain of D-2 receptor (P61169 whole entry): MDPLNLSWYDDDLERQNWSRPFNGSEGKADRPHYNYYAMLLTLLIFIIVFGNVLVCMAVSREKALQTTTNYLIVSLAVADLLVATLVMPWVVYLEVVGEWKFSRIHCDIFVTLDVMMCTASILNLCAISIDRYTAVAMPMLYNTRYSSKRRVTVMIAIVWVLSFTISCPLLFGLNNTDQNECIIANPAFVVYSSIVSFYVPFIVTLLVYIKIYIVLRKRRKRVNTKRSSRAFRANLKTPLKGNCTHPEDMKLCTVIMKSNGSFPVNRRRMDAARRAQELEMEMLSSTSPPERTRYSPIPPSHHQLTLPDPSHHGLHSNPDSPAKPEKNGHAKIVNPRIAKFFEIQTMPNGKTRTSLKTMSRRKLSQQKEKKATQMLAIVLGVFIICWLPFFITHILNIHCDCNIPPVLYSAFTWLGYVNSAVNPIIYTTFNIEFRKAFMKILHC

Row | Structure (SMILES) | IC50 (D-1 receptor) | times more potent than apomorphine at the D-2 receptor (D-2 receptor; relative to apomorphine) | times more potent than dopamine at the D-2 receptor (D-2 receptor; relative to dopamine)
1 | CN1CCc2cccc3c2[C@H]1Cc1ccc(O)c(O)c1-3 [Apomorphine, reference compound] | 1500 nM |  | 
2 | CCCN(CCc1ccccc1)C1CCc2c(O)cccc2C1 (stereo not shown) [PPHT, 2-(N-phenylethyl-N-propylamino)-5-hydroxytetralin] | 3700 nM | approximately 40 times | 250 times

— patent publication US4465692A (Nelson Research & Development Company, priority 1982, dated 1984)
